The text below walks through data of US5496841A, “Anti-neoplastic, anti-viral and ribonucleotide reductase activity affecting pharmaceutical compositions and method of treatment” (University of Florida Research Foundation, Inc., priority 1995, dated 1996).

For data set [1], the system named is vesicular stomatitis virus. The experiment in a line: microbe, parasite or virus in culture. In kind it is cell-based.
The test system of data set [2] is Murine L1210 leukemia cells. The experiment in a line: L1210 leukemia cell growth inhibition. The data set is classed as cell-based. Particulars: for IC50: L1210, 48 hr, read-out: Antileukemic Activity (IC50, 48 hr); for anti-leukemic activity (in words): L1210; for % Control, L1210 growth: Compound II 10 μM.
Data set [3] relates to herpes simplex I, KOS strain. As to the kind of experiment: Inhibition of herpes simplex virus replication in CV-1 cells (plaque assay). Conditions: for anti-herpetic activity (in words): herpes simplex I; for % Control, Herpes replication: Compound II 100 μM. In kind it is cell-based.
The test system of data set [4] is herpes virus (same herpes strain). Conditions: vero monkey kidney cell line, DeClercq, read-out: IC50 anti-herpetic; cited from earlier work.
Data set [5] can be described thus: Iron formation (binding) constant. The data set is classed as physicochemical. Particulars: estimated iron binding constant. An excerpt:
When the compounds were ranked according to their estimated iron binding constants (Table I), the order generally paralleled both the anti-leukemicand anti-herpetic activities of the compounds. […] Furthermore, the effects of the ligands could be prevented by addition of ferric chloride, supporting the idea that iron chelation is the source of activity.

The test system of a further data set is Plasmodium falciparum. As to the kind of experiment: In vitro growth of Plasmodium falciparum (candle jar technique). The data set is classed as cell-based. The protocol:
The anti-malarial activity of the compounds listed in Table IV were determined using the method of Scheibel et al, Mol. Pharmacol., 20, pp. 218-223 (1981).
In this study, Plasmodium falciparum were grown in petri dishes using the conventional candle jar technique (Jensen, J. B., and W. Trager. Plasmodium falciparum in culture; use of outdated erythrocytes and description of the candle jar method. J. Parasitol. Vol. 63, pp. 883-886 (1977)). Parasites were grown for 24 hours in 1.5 ml petri dishes in a candle jar before exposure to the chelators of interest. The Plasmodium falciparum were next exposed to various concentrations of the ligands, and ED50 values determined after two and three days of exposure.

The conditions of data set [6]: prior art statement; cited from earlier work.
Data set [7] can be described thus: Partition between n-octanol and phosphate buffered saline. In kind it is physicochemical. Conditions: PBS pH 7.40 / n-octanol; for logD at 12 h: pH 7.4, 27° C., read-out: Conc. n-Octanol / Conc. PBS (partition coefficient) (converted). The protocol: The partition equilibrium values for octanol and phosphate buffered saline were determined for certain of the test compounds. The compounds were added in nitrogen saturated methanol at the same concentration to three acid washed test tubes and the alcohol evaporated leaving a thin film of compounds coating the interior of the tube. Next, 5 ml each of degassed phosphate buffered saline (pH 7.4) and n-octanol were added. The tubes were sealed with Teflon caps under argon and rotated at 6 rpm at 27° C. for 12 hours. […] Absorbance values were compared to Beer's Lambert's plots generated for each compound.

The subject of the next data set is CV-1 monkey kidney cells. As to the kind of experiment: Toxicity to resting monkey kidney cell monolayers. In kind it is cell-based. Conditions: 100 μM, 24 hours.
The subject of another data set is L1210 cells. Conditions: Porter et al, read-out: 50% growth-inhibitory dose; cited from earlier work.
Where [8] appears, read: CV-1 cells, read-out: Antiviral Activity Herpes simplex I (IC50).
Setting [9] is: Vesicular stomatitis virus, CV-1, read-out: Antiviral Activity Vesicular stomatitis (IC50).
The mark [10] stands for this setting: CV-1, read-out: Antiviral Activity Herpes simplex I (IC50).
The mark [11] stands for this setting: 48 h, exposure for 2 days, read-out: Concentration required to reduce in vitro growth of P. falciparum 50% (ED50), Day 2.
Where [12] appears, read: 72 h, exposure for 3 days, read-out: Concentration required to reduce in vitro growth of P. falciparum 50% (ED50), Day 3.

SMILES strings stand for the structures. Like-named read-outs stand apart in the source and are kept apart here.

As for `C[C@@H](O)[C@H](N)C(=O)N(CCCCNC(=O)c1cccc(O)c1O)CCCNC(=O)c1cccc(O)c1O` [N^1,N^8-bis(2,3-dihydroxybenzoyl)-N^4-threonyl-spermidine], the IC50 in data set [1] (estimated by methyl cellulose disk overlay assay, read-out: Antiviral Activity Vesicular stomatitis (IC50)) was 1000 µM; in [2], 14 µM; in [3] (setting [8]), 55 µM.
Regarding `Nc1nc(=O)n([C@@H]2O[C@H](CO)[C@@H](O)[C@@H]2F)cc1I` [FIAC, 2-fluoro-5-iodo-I-B-D-arabinofuranosylcytosine], the IC50 in data set [4] was 0.6 µM.
`NCCCCN(CCCN)Cc1ccccc1`: the results for the IC50 in data set [1] (setting [9]), in [2] (Mus musculus) and in data set [3] (setting [10]) were 1000 µM, 4000 µM and 1000 µM, respectively. Moreover, in data set [5], the “Formation Constant” value is on record as 0 moles/1. The “anti-leukemic activity (in words)” value in [2] is “virtually inactive”. Also, the “anti-herpetic activity (in words)” value in [3] is “virtually inactive”.
Consider `O=C(NCCCCN(CCCNC(=O)c1cccc(O)c1O)C(=O)CCCNC(=O)c1cccc(O)c1O)c1cccc(O)c1O` [GABA, N^1,N^8-bis(2,3-dihydroxybenzoyl)-N^4-(4-[2,3-dihydrozybenzamido]-butyryl) spermidine], for which the IC50 is 5.1 µM with Plasmodium falciparum (setting [11]); 4.3 µM with Plasmodium falciparum (setting [12]); 1000 µM in data set [1] (setting [9]); 2 µM in data set [2] (Mus musculus); 18 µM in data set [3] (setting [8]).
Consider `C[C@H]1OC(c2cccc(O)c2O)=N[C@@H]1C(=O)NCCCN(CCCNC(=O)c1cccc(O)c1O)C(=O)[C@H]1N=C(c2cccc(O)c2O)O[C@@H]1C` (relative stereo) [Vibrobactin, N-[3-(2,3-(dihydrozybenzamido)propyl]-1,3-bis(2,3-dihydroxyphenyl)-trans-5-methyl-2-oxazoline-4-carbonamido]propane], for which the IC50 is 4.5 µM with Plasmodium falciparum (setting [11]), 1.8 µM in the data set with Plasmodium falciparum (setting [12]) and 2 µM in [2] (Mus musculus).
`C[C@H]1OC(c2ccccc2O)=N[C@@H]1C(=O)N(CCCCNC(=O)c1cccc(O)c1O)CCCNC(=O)c1cccc(O)c1O` (relative stereo) [Parabactin, N-[3-(2,3-dihydroxybenzamido)propyl]-N-[4-(2,3-dihydroxybenzamino)-butyryl]-2-(2-hydroxyphenyl)trans-5-methyl-oxazoline-4-carboxamide]: the IC50 in the data set on Plasmodium falciparum (setting [11]) was found to be 2.6 µM; with Plasmodium falciparum (setting [12]), 2.3 µM; in [2] (Mus musculus), 2 µM; in data set [3] (setting [8]), 0.4 µM. The “iron formation constant of 1:1 metal complex” value in data set [6] is listed as ~10^48 moles/l. Also, the “Gt ° (G° transfer)” value in [7] is on record as -2.06 K cal M-I. For the same compound, in data set [7], the logD at 12 h was 1.51. The “times more active as an antineoplastic than DHBA” value in data set [2] (ratio vs DHBA) is reported as 10^3.
Consider `Nc1nc2c(ncn2COCCO)c(=O)[nH]1` [acyclovir], for which, in [4], the IC50 is 40 µM.
Consider `O=C(NCCCCNCCCNC(=O)c1cccc(O)c1O)c1cccc(O)c1O` [Compound II, N^1,N^8-bis(2,3-dihydroxybenzoyl)-spermidine], for which the IC50 is 4.5 µM in the data set with Plasmodium falciparum (setting [11]); 3.7 µM in the data set on Plasmodium falciparum (setting [12]); 1000 µM in [1] (setting [9]); 7 µM in [2] (Mus musculus); 32 µM in [3] (setting [8]); 10 µM with L1210 cells. The “Gt ° (G° transfer)” value in [7] is given as -0.04 K cal M-I. Further, the logD at 12 h in data set [7] is -0.0132. Besides, the “growth of resting cell monolayers after treatment and replacement in drug-free media” value in the data set on CV-1 monkey kidney cells is given as “identical to that of untreated cells”. Also, the “% Control, L1210 growth” value in data set [2] (FeCl3 0 μM) was 23 % Control; in [2] (FeCl3 4 μM) it was 64 % Control; in [2] (FeCl3 8 μM), 96 % Control; in data set [2] (FeCl3 12 μM) it was 104 % Control. The “anti-leukemic activity on inclusion of exogenous iron in the incubation media” value in data set [2] (ferric chloride added) was “fully attenuated”. Besides, the “% Control, Herpes replication” value in data set [3] (FeCl3 0 μM) is listed as 0 % Control; in data set [3] (FeCl3 9 μM) it was 20 % Control; in data set [3] (FeCl3 19 μM), 53 % Control; in data set [3] (FeCl3 38 μM), 138 % Control. In [3] (ferric chloride added, herpes replication assay), the “anti-herpetic activity on inclusion of exogenous iron in the incubation media” value is recorded as “fully attenuated”.
`O=C(O)c1cccc(O)c1O` [DHBA, 2,3-dihydroxybenzoic acid]: the IC50 in data set [1] (setting [9]) came to 1000 µM; in data set [2] (Mus musculus), 2800 µM; in [3] (setting [10]) it was 1000 µM. In addition, the “Gt ° (G° transfer)” value in [7] is on record as “+1.57 K cal M-I”. For the same compound, the logD at 12 h in [7] was -1.15. For the same compound, the “anti-leukemic activity (in words)” value in [2] was “minimal activity”. In addition, the “anti-herpetic activity (in words)” value in data set [3] is “minimal activity”.
